Experimental data from article PMC4354951 (European journal of medicinal chemistry, 2008).

Legend:
human NPP1 = molecular target: T1, human NPP1 (Homo sapiens, UniProt P22413); experiment: Hydrolysis by NPP1; assay type: biochemical; conditions: 100 μM substrate; relative to pnp-TMP hydrolysis (100%)
T1 sequence (P22413 1-925): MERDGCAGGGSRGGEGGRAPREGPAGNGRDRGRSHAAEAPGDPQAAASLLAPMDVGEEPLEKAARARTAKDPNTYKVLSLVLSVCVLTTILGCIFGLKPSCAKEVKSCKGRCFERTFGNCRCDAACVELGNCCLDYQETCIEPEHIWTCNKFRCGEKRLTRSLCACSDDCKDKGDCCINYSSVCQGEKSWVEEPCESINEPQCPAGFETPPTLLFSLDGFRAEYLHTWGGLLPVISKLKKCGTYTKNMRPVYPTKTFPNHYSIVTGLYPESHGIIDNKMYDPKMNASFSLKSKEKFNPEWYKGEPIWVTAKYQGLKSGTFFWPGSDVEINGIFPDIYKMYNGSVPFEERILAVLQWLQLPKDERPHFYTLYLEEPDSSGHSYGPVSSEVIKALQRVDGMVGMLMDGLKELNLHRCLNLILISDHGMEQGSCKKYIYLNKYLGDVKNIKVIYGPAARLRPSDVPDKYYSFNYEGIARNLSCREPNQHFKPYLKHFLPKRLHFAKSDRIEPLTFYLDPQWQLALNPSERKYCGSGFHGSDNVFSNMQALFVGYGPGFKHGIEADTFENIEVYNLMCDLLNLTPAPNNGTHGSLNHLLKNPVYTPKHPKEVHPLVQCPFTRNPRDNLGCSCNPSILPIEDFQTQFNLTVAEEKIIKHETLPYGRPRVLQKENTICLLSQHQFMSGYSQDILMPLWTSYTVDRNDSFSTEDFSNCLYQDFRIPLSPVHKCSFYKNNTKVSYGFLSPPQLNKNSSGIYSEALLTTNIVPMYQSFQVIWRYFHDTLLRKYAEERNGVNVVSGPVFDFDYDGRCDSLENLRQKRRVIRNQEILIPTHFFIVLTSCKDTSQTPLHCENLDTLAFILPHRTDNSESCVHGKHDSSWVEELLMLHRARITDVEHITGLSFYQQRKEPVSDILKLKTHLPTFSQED

human NTPDase1 = molecular target: T2, human NTPDase1 (Homo sapiens, UniProt P49961); experiment: Hydrolysis by NTPDase1; assay type: biochemical; conditions: 100 μM substrate; relative to ATP hydrolysis (100%)
T2 sequence (P49961 1-510): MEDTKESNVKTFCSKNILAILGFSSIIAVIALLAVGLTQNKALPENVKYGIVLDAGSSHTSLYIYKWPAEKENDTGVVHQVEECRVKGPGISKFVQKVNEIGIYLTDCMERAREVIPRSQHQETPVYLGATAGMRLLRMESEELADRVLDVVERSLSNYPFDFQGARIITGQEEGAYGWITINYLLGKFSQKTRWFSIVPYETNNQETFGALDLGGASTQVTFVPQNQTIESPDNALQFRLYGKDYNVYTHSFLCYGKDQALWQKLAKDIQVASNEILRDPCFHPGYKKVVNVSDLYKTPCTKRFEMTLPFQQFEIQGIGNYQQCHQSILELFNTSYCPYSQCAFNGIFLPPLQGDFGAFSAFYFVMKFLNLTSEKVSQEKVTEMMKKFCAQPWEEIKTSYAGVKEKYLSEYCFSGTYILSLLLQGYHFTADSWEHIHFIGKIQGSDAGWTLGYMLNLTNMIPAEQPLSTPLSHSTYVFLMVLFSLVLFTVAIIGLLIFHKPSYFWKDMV

rat P2Y6 receptor = rat P2Y6 receptor (Rattus norvegicus, UniProt Q63371); experiment: Increase in [Ca2+]i in 1321N1 astrocytoma cells expressing P2Y6 receptor; assay type: cell-based; conditions: 1321N1 cell transfectants; for EC50: read-out: EC50 of analogue-induced increase in [Ca2+]i, P2Y6
[1] = Chemical hydrolysis under gastric juice-like conditions; assay type: physicochemical
[2] = Stability in human blood serum, Method B; conditions: Method B; 37 °C, up to 144 h

Chain of rat P2Y6 receptor (Q63371 whole entry): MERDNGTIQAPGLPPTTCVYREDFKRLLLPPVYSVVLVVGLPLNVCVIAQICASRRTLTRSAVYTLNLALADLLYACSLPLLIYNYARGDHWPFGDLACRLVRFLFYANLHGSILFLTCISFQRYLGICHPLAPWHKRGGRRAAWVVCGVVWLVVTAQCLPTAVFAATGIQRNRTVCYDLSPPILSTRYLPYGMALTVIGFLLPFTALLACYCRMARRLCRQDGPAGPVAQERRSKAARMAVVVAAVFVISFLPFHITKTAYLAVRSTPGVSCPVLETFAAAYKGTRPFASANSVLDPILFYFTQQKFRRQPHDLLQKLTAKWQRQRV

| Compound | Relative activity of NPP1 (human NPP1) [%] | Relative activity of NTPDase1 (human NTPDase1) [%] | agonist activity at P2Y6R (rat P2Y6 receptor) | EC50 (rat P2Y6 receptor) [µM] | fraction degraded ([1]; 0.2 M HCl/KCl pH 1.4, 37 °C, after 19 h) [%] | t1/2 of acidic hydrolysis ([1]; KCl/HCl buffer pH 1.4, 37 °C, 31P NMR (2) or HPLC-MS (3B, 4B)) [h] | resistance to enzymatic hydrolysis in human blood serum [2] |
| --- | --- | --- | --- | --- | --- | --- | --- |
| [BH3-][P+](O)(OC[C@H]1O[C@@H](n2cnc3c(N)ncnc32)[C@H](O)[C@@H]1O)OP(=O)(O)CP(=O)(O)O (single isomer, unassigned) [3A, Adenosine-5′-O-(α-boranotriphosphate)-β,γ-CH2] | 0 | 1.0 ± 2.1 | insignificant activities | > 100 |  |  |  |
| [BH3-][P+](O)(OC[C@H]1O[C@@H](n2cnc3c(N)ncnc32)[C@H](O)[C@@H]1O)OP(=O)(O)CP(=O)(O)O (single isomer, unassigned) [3B, Adenosine-5′-O-(α-boranotriphosphate)-β,γ-CH2] | 4.0 ± 0.12 | 0 | insignificant activities | > 100 | 50 | 19 |  |
| [BH3-][P+](O)(OC[C@H]1O[C@@H](n2cnc3c(N)nc(SC)nc32)[C@H](O)[C@@H]1O)OP(=O)(O)CP(=O)(O)O (single isomer, unassigned) [4A, 2-MeS–adenosine-5′-O-(α-boranotriphosphate)-β,γ-CH2] | 0 | <1 | insignificant activities | > 100 |  |  | completely resistant to enzymatic hydrolysis for at least 6 days |
